# Experimental data taken from patent US20240246979A1, “cGAS INHIBITORS” (Eli Lilly and Company, priority 2022, published 2024).
# Columns and labels:
# cGAS [1] = target: T1, cGAS (Homo sapiens, UniProt Q8N884); experiment: Cellular assay to measure cGAS activity (IFNb AlphaLISA in THP1 cells stimulated by RDG-Adenovirus-GFP); type: cell-based; parameters: host or cells: THP1 cells differentiated with PMA and stimulated with RDG-Adenovirus-GFP; conditions: PMA-differentiated THP1 cells, RDG-Adenovirus-GFP at 1000 MOI; inhibition of IFNb production as marker for cGAS activity
# T1 sequence (Q8N884 whole entry): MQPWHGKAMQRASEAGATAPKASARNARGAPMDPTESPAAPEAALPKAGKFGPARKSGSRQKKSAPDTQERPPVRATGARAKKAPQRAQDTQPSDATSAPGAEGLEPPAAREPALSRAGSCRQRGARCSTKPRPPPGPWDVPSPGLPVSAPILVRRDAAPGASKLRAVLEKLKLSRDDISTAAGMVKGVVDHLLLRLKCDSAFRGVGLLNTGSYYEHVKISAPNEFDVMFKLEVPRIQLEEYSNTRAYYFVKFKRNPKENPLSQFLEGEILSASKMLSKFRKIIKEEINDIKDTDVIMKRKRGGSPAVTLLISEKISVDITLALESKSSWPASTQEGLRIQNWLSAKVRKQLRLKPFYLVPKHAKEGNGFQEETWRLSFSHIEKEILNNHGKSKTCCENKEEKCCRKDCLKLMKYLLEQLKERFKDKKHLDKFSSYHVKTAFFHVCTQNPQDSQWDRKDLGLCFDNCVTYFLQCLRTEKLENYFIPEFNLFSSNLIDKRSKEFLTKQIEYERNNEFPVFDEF
# Protocol: Cellular assay to measure cGAS activity: Use THP1 cell line from ATCC to determine inhibition of cGAS activity by test compounds in human cells. Plate cells on 96-well plates at 0.2×10^6/well and differentiate with phorbol myristate acetate (PMA) at 37° C./5% CO2. After 24 hours, replace PMA containing media with media lacking PMA and further incubate overnight. Stimulate cells were then by RDG-Adenovirus-GFP (Vector Biolabs #1768) at 1000 MOI for 4 hours prior to the addition of test compounds. After overnight incubation, transfer 10 μL of the media from each well to a new plate for IFNb analysis as a marker for cGAS activity. Measure quantification of IFNb with an IFNb AlphaLISA Detection kit (Perkin Elmer AL3133F) by mixing the acceptor beads with the cell supernatant followed by the addition of the biotinylated antibody and donor beads. Measure the relative fluorescence signal produced from the interaction of the donor and acceptor beads by a PHERAStar AlphaLISA protocol and evaluate the inhibitory effect of a compound by plotting specific inhibition of IFNb production against log concentration of the test compound. Calculate IC50 values using a 4-parameter non-linear logistic equation (y=(S0+((SInf−S0)/(1+((qAC50/x)^nHill))))).
# cGAS [2] = target: T1, cGAS; experiment: In vitro inhibition assay of cGAS activity (cGAMP production, RapidFire mass spectrometry); type: biochemical; parameters: Insert cDNA encoding full-length of human cGAS; His6; made in house; host or cells: E. coli BL21(DE3); conditions: 10 nM recombinant human cGAS, 60 nM 75-bp dsDNA, 50 μM ATP, 50 μM GTP, 3 hrs
# Protocol: Expression and Purification of Recombinant cGAS Protein: Insert cDNA encoding full-length of human cGAS into a modified bacterial expression vector containing an in-frame His6-tag. Induce the E. coli strain BL21(DE3) harboring the plasmid with 1 mM IPTG (Isopropyl β-D-1-thiogalactopyranoside) at 18° C. overnight. Purify the His6-tagged cGAS protein over HISpur Ni-NTA resin in the presence of benzonase and RNase followed by Superdex 200 size exclusion chromatography with storage buffer (50 mM Tris-HCl pH 7.5, 300 mM NaCl, 1 mM DTT, 10% glycerol).
# In vitro inhibition assay of cGAS activity: Add a 5 μL mixture containing 10 mM Tris-Cl pH 7.5, 50 mM NaCl, 5 mM MgCl2, 1 mM DTT, 0.01% Triton X-100, 60 nM 75-bp dsDNA, 50 μM ATP, 50 μM GTP, 10 nM of recombinant human cGAS, and serial dilutions of a test compound in DMSO to a 384-well plate and incubate at ambient temperature for 3 hrs. Quench the reaction by the addition of 100 μL of stop solution containing 0.1% formic acid and 0.1 μM internal standard (3′3′-difluoro cGAMP). Measure the amount of cGAMP produced by RapidFire 365 mass spectrometry and evaluate inhibitory effect of a compound by plotting percent specific inhibition of cGAMP production against log concentration of the test compound. Calculate IC50 values using a 4-parameter non-linear logistic equation (y=(S0+((Sinf−S0)/(1+((qAC50/x)^nHill))))).
IC50 (cGAS [1]) [nM],IC50 (cGAS [2]) [nM],Compound
1910,34.5,"CC1C(=O)NCCc2[nH]c3c(Cl)c(Cl)cc(N[C@H]4CCOC4)c3c21 (mixture of isomers) [Example 61, 7,8-Dichloro-1-methyl-10-(((S)-tetrahydrofuran-3-yl)amino)-3,4,5,6-tetrahydroazepino[4,5-b]indol-2(1H)-one]"
3470,51.9,"CC1C(=O)NCCc2[nH]c3c(Cl)c(Cl)cc(OC4CCOC4)c3c21 (mixture of isomers) [Example 86, 7,8-Dichloro-1-methyl-10-((tetrahydrofuran-3-yl)oxy)-3,4,5,6-tetrahydroazepino[4,5-b]indol-2(1H)-one]"
217,13.6,"CC(O)CC1CNC(=O)Cc2c1n(C)c1c(Cl)c(Cl)cc(CC#N)c21 (mixture of isomers) [Example 128, 2-(7,8-Dichloro-5-(2-hydroxypropyl)-6-methyl-2-oxo-1,2,3,4,5,6-hexahydroazepino[4,5-b]indol-10-yl)acetonitrile]"
3570,26.2,"CCOC(=O)CC1CNC(=O)Cc2c1[nH]c1c(Cl)c(Cl)cc(-c3cnn(C)n3)c21 (racemic) [Example 4, Ethyl 2-(7,8-dichloro-10-(2-methyl-2H-1,2,3-triazol-4-yl)-2-oxo-1,2,3,4,5,6-hexahydroazepino[4,5-b]indol-5-yl)acetate]"
> 10000,5.12,"Cn1ncc(-c2cc(Cl)c(Cl)c3[nH]c4c(c23)CC(=O)NCC4CC(=O)O)n1 (racemic) [Example 5, 2-(7,8-Dichloro-10-(2-methyl-2H-1,2,3-triazol-4-yl)-2-oxo-1,2,3,4,5,6-hexahydroazepino[4,5-b]indol-5-yl)acetic acid]"
420,19,"Cn1ncc(-c2cc(Cl)c(Cl)c3[nH]c4c(c23)CC(=O)NCC4CCO)n1 (racemic) [Example 8, 7,8-Dichloro-5-(2-hydroxyethyl)-10-(2-methyl-2H-1,2,3-triazol-4-yl)-3,4,5,6-tetrahydroazepino[4,5-b]indol-2(1H)-one]"
582,9050,"CC(=O)OCCCOc1cc(Cl)c(Cl)c2[nH]c3c(c12)C(C)C(=O)NCC3 (racemic) [Example 13, 3-((7,8-Dichloro-1-methyl-2-oxo-1,2,3,4,5,6-hexahydroazepino[4,5-b]indol-10-yl)oxy)propyl acetate]"
885,22.6,"COCCNc1cc(Cl)c(Cl)c2[nH]c3c(c12)C(C)C(=O)NCC3 (racemic) [Example 46, 7,8-Dichloro-10-((2-methoxyethyl)amino)-1-methyl-3,4,5,6-tetrahydroazepino[4,5-b]indol-2(1H)-one]"
390,15,"CC1C(=O)NCCc2[nH]c3c(Cl)c(Cl)cc(NCCO)c3c21 (racemic) [Example 49, 7,8-Dichloro-10-((2-hydroxyethyl)amino)-1-methyl-3,4,5,6-tetrahydroazepino[4,5-b]indol-2(1H)-one]"
2220,29.1,"CC1C(=O)NCCc2[nH]c3c(Cl)c(Cl)c(F)c(NCCO)c3c21 (racemic) [Example 52, 7,8-Dichloro-9-fluoro-10-((2-hydroxyethyl)amino)-1-methyl-3,4,5,6-tetrahydroazepino[4,5-b]indol-2(1H)-one]"
974,53.3,"CC1C(=O)NCCc2[nH]c3c(Cl)c(Cl)cc(NC4COC4)c3c21 (racemic) [Example 60, 7,8-Dichloro-1-methyl-10-(oxetan-3-ylamino)-3,4,5,6-tetrahydroazepino[4,5-b]indol-2(1H)-one]"
,111,"Cn1ccc(-c2cc(Cl)c(Cl)c3[nH]c4c(c23)CC(=O)NCC4)n1 [Example 3, 7,8-Dichloro-10-(1-methyl-1H-pyrazol-3-yl)-3,4,5,6-tetrahydroazepino[4,5-b]indol-2(1H)-one]"
,141,"Cn1c2c(c3c(OCC#N)cc(Cl)c(Cl)c31)CC(=O)NCC2 [Example 21, 2-((7,8-Dichloro-6-methyl-2-oxo-1,2,3,4,5,6-hexahydroazepino[4,5-b]indol-10-yl)oxy)acetonitrile]"
